# In patent publication US20240210394A1, “MICROORGANISM CAPTURE FROM ANTIMICROBIAL-CONTAINING SOLUTION” (MOMENTUM BIOSCIENCE LIMITED, priority 2019, published 2024):
# Assays:
# E. coli [1] = assay: Blood culture time to positivity (flip time), bead rescue vs no-rescue control; assay type: cell-based; conditions: for Bead Rescue Flip time / Control Flip time in Days: antibiotic 0.075 mg/L blood; for Flip time: Bead rescue
# Protocol: (§1) Day 1: Prepare overnight culture of test organism in blood/broth medium (50:50 blood:broth) and incubate at 37° C. in a shaking incubator.
# Day 2: Prepare ten-fold serial dilution of overnight culture in blood/broth as required and incubate at 37° C. for 2 h for outgrowth.
# Add 5 mL of spiked blood+beads (set 1) and 5 mL of spiked blood/Abx+beads (set 3) to blood culture bottles (BioMerieux SA culture bottle) using a vial adapter (West Pharmaceutical Services, Inc. PA, US).
# Remove the adaptor and incubate the blood culture bottles in the automated blood culture cabinet (BacT/ALERT BioMerieux) for up to 5 days.
# (§2) Record the “Flip” time of each bottle or bottle result at the end of 5 days incubation. The “Flip” time is when a bottle turns positive as determined by the automated blood culture cabinet, which records time to positivity.
# (§3) Day 1: Prepare overnight culture of test organism in blood/broth medium (50:50 blood:broth) and incubate at 37° C. (or 30° C. for C. neoformans) in a shaking incubator.
# (or 30° C. for C. neoformans) for 2 h for outgrowth. • Antibiotic added to whole blood (defibrinated horse blood) at required level • Whole blood as no-antibiotic control • Test dilution(s) of organism added to blood+antibiotic or blood only at 10 μL per mL of blood (sufficient prepared for experiment requirements) • 100 μL plate count sample taken (TO sample) • 2-hour incubation (static) at 37° C. (or 30° C. for C. neoformans) • 100 μL plate count sample taken (T2 sample) • 5 mL of spiked blood+abx or blood only added to blood culture bottle (using vial adapter) and incubation started (adapter removed) • 5 mL of spiked blood+abx or blood only (from same source) treated with Momentum Capture Beads as below: • 1. Capture Beads diluted in the relevant Capture Reagent—50 μL beads:700 μL capture reagent per clean-up • 2. 750 μL of diluted beads added to 50 mL conical centrifuge tube • 3. 5 mL of transfer medium added to tube • 4. 5 mL of spiked blood+abx or blood only added to tube • 5. […] Magnetise on V&P magnet for 10 min then remove supernatant • 7. Resuspend beads in 1 mL Detergent-free Wash Buffer (DWB) off magnet and transfer to 2 mL Eppendorf flip-top tube on DynaMag-2 magnet • 8. Magnetise for 3 min then remove supernatant • 9. Resuspend beads in 1 mL Detergent-free Wash Buffer (DWB) off magnet then replace on DynaMag-2 magnet • 10. Magnetise for 3 min then remove supernatant • 11. Resuspend beads in 1 mL DWB, add to new blood culture bottle (using vial adapter) and start incubation (adapter removed)
# Momentum Capture Beads diluted in the relevant Capture Reagent—50 μL beads:700 μL capture reagent per clean-up • 2. 750 μL of diluted beads added to 50 mL conical centrifuge tube • 3. 5 mL of transfer medium added to tube • 4. 5 mL of spiked blood+abx or blood only added to tube • 5. […] Magnetise on V&P magnet for 10 min then remove supernatant • 7. Resuspend beads in 1 mL Detergent-free Wash Buffer (DWB) off magnet and transfer to 2 mL Eppendorf flip-top tube on DynaMag-2 magnet • 8. Magnetise for 3 min then remove supernatant • 9. Resuspend beads in 1 mL Detergent-free Wash Buffer (DWB) off magnet then replace on DynaMag-2 magnet • 10. Magnetise for 3 min then remove supernatant • 11. Resuspend beads in 1 mL DWB, add to an unused blood culture bottle (BioMerieux FA+culture bottle) using vial adapter and start incubation (adapter removed)
# S. pneumoniae = assay: as above; assay type: cell-based; conditions: for Flip time: Bead rescue; for Flip time / Flip time in Days: 12600 cfu/5 ml blood; for Flip time in Days: Control (FA plus bottle); for Bead Rescue Flip time / Control Flip time in Days: antibiotic 1 mg/L blood
# Protocol: as §3
# (or 30° C. for C. neoformans) for 2 h for outgrowth. • Antibiotic added to whole blood (defibrinated horse blood) at required level • Whole blood as no-antibiotic control • Test dilution(s) of organism added to blood+antibiotic or blood only at 10 μL per mL of blood (sufficient prepared for experiment requirements) • 100 μL plate count sample taken (TO sample) • 2-hour incubation (static) at 37° C. (or 30° C. for C. neoformans) • 100 μL plate count sample taken (T2 sample) • 5 mL of spiked blood+abx or blood only added to blood culture bottle (using vial adapter) and incubation started (adapter removed) • 5 mL of spiked blood+abx or blood only (from same source) treated with Momentum Capture Beads as below: • 1. Capture Beads diluted in the relevant Capture Reagent—50 μL beads:700 μL capture reagent per clean-up • 2. 750 μL of diluted beads added to 50 mL conical centrifuge tube • 3. 5 mL of transfer medium added to tube • 4. 5 mL of spiked blood+abx or blood only added to tube • 5. Incubate on ITL TherMix (32.5° C./30 min/1000 rpm—ramped speed protocol) • 6. Magnetise on V&P magnet for 10 min then remove supernatant • 7. Resuspend beads in 1 mL Detergent-free Wash Buffer (DWB) off magnet and transfer to 2 mL Eppendorf flip-top tube on DynaMag-2 magnet • 8. Magnetise for 3 min then remove supernatant • 9. Resuspend beads in 1 mL Detergent-free Wash Buffer (DWB) off magnet then replace on DynaMag-2 magnet • 10. Magnetise for 3 min then remove supernatant • 11. Resuspend beads in 1 mL DWB, add to new blood culture bottle (using vial adapter) and start incubation (adapter removed)
# as §2, §1
# Momentum Capture Beads diluted in the relevant Capture Reagent—50 μL beads:700 μL capture reagent per clean-up • 2. 750 μL of diluted beads added to 50 mL conical centrifuge tube • 3. 5 mL of transfer medium added to tube • 4. 5 mL of spiked blood+abx or blood only added to tube • 5. Incubate on ITL TherMix (32.5° C./30 min/1000 rpm—ramped speed protocol) • 6. Magnetise on V&P magnet for 10 min then remove supernatant • 7. Resuspend beads in 1 mL Detergent-free Wash Buffer (DWB) off magnet and transfer to 2 mL Eppendorf flip-top tube on DynaMag-2 magnet • 8. Magnetise for 3 min then remove supernatant • 9. Resuspend beads in 1 mL Detergent-free Wash Buffer (DWB) off magnet then replace on DynaMag-2 magnet • 10. Magnetise for 3 min then remove supernatant • 11. Resuspend beads in 1 mL DWB, add to an unused blood culture bottle (BioMerieux FA+culture bottle) using vial adapter and start incubation (adapter removed)
# To compare organism capture and rescue from FA plus bottles, on S. pneumoniae in Ceftriaxone. Reproduce experiment by Flayhart et al. 2007 testing antibiotic concentrations of 250, 125 and 94 mg/L and also include concentrations of 50 and 10 mg/L.
# In the table below, “control” represents samples processed using FA plus bottles (also referred to as “BC” in the final column) and “bead rescue” refers to samples processed according to the methods of the invention.
# E. coli [2] = conditions: cited from earlier work
# Candida albicans = assay: Blood culture time to positivity (flip time), bead rescue vs no-rescue control; assay type: cell-based; conditions: 4000 cfu/5 mL Blood
# Protocol: (§4) Day 1: […] (or 30° C. for C. neoformans) in a shaking incubator. Day 2: […] (or 30° C. for C. neoformans) for 2 h for outgrowth. • Antibiotic added to whole blood (defibrinated horse blood) at required level • Whole blood as no-antibiotic control • Test dilution(s) of organism added to blood+antibiotic or blood only at 10 μL per mL of blood (sufficient prepared for experiment requirements) • 100 μL plate count sample taken (TO sample) • 2-hour incubation (static) at 37° C. […] […] on V&P magnet for 10 min then remove supernatant • 7. […] […] for 3 min then remove supernatant • 9. Resuspend beads in 1 mL Detergent-free Wash Buffer (DWB) off magnet then replace on DynaMag-2 magnet • 10. […] for 3 min then remove supernatant • 11. Resuspend beads in 1 mL DWB, add to new blood culture bottle (using vial adapter) and start incubation (adapter removed) […] The “Flip” time is when a bottle turns positive as determined by the automated blood culture cabinet, which records time to positivity.
# Cryptococcus neoformans = assay: as above; assay type: cell-based; conditions: antibiotic 2 mg/L blood; 102200 cfu/5 mL Blood
# Protocol: as §4
structure (smiles),measurement,setting,value
O=C(O)c1cn(C2CC2)c2cc(N3CCNCC3)c(F)cc2c1=O [Ciprofloxacin],Flip time In Days,"E. coli [1]; Ciprofloxacin 0.075 mg/L blood, 11400 Cfu/mL (first set, r5-r10), bead rescue with named bead type, antibiotic-labelled line = BC control without beads",Negative
same,Flip time In Days,"E. coli [1]; Ciprofloxacin 0.075 mg/L blood, 11400 Cfu/mL (second set, r11-r16), bead rescue with named bead type, antibiotic-labelled line = BC control without beads",Negative
same,Difference (Days) compared to BE,"E. coli [1]; Ciprofloxacin 0.075 mg/L blood, 380800 Cfu/mL (some rows print 360800), antibiotic-labelled line = BC control without beads",Negative
same,Flip time in Days,"E. coli [1]; Ciprofloxacin 0.075 mg/L blood, 380800 Cfu/mL (some rows print 360800), bead rescue with named bead type, antibiotic-labelled line = BC control without beads",Negative
same,Difference (Days) compared to BE,"E. coli [1]; Ciprofloxacin 0.075 mg/l blood, 11400 Cfu/mL (first set, r5-r10), antibiotic-labelled line = BC control without beads",Negative
same,Difference (Days) compared to BE,"E. coli [1]; Ciprofloxacin 0.075 mg/l blood, 11400 Cfu/mL (second set, r11-r16), antibiotic-labelled line = BC control without beads",Negative
same,No-rescue blood culture control result,"E. coli [1]; Example 23, E. coli in blood containing 0.075 mg/L Ciprofloxacin",negative after 5 days
same,Blood culture controls (no bead rescue) result,"E. coli [1]; Example 24, E. coli in blood containing 0.075 mg/L Ciprofloxacin",negative
same,Bead Rescue Flip time,E. coli [1]; 100000 cfu/5 mL Blood,0.68 days
same,Control Flip time in Days,E. coli [1]; 100000 cfu/5 mL Blood,Neg
same,Bead Rescue Flip time,E. coli [1]; 1000000 cfu/5 mL Blood,0.61 days
same,Control Flip time in Days,E. coli [1]; 1000000 cfu/5 mL Blood,Neg
CO/N=C(\C(=O)N[C@@H]1C(=O)N2C(C(=O)O)=C(CSc3nc(=O)c(=O)[nH]n3C)CS[C@H]12)c1csc(N)n1 [Ceftriaxone],Flip time,S. pneumoniae; Ceftriaxone 10 mg/L blood,0.46 days
same,Flip time,S. pneumoniae; Ceftriaxone 50 mg/L blood,0.47 days
same,Flip time,S. pneumoniae; Ceftriaxone 94 mg/L blood,0.52 days
same,Flip time,S. pneumoniae; Ceftriaxone 125 mg/L blood,0.49 days
same,Flip time,S. pneumoniae; Ceftriaxone 250 mg/L blood,0.51 days
same,Flip time in Days,S. pneumoniae; Ceftriaxone 10 mg/L blood,Neg
same,Flip time in Days,S. pneumoniae; Ceftriaxone 50 mg/L blood,Neg
same,Flip time in Days,S. pneumoniae; Ceftriaxone 94 mg/L blood,Neg
same,Flip time in Days,S. pneumoniae; Ceftriaxone 125 mg/L blood,Neg
same,Flip time in Days,S. pneumoniae; Ceftriaxone 250 mg/L blood,Neg
CO/N=C(\C(=O)N[C@@H]1C(=O)N2C(C(=O)O)=C(COC(C)=O)CS[C@H]12)c1csc(N)n1 [Cefotaxime],Flip time,"E. coli [1]; Cefotaxime 100 mg/L blood, 50800 cfu/5 mL blood",0.39 days
same,Flip time,"E. coli [1]; Cefotaxime 100 mg/L blood, 508000 cfu/5 mL blood",0.31 days
same,Flip time in Days,"E. coli [1]; Control (FA plus bottle), Cefotaxime 100 mg/L blood, 50800 cfu/5 mL blood",Neg
same,Flip time in Days,"E. coli [1]; Control (FA plus bottle), Cefotaxime 100 mg/L blood, 508000 cfu/5 mL blood",Neg
same,MIC,E. coli [2],≤1 µg/mL
C[C@@H]1[C@H](O)[C@@H](C)/C=C/C=C/C=C/C=C/C=C/C=C/C=C/[C@H](O[C@@H]2O[C@H](C)[C@@H](O)[C@H](N)[C@@H]2O)C[C@@H]2O[C@](O)(C[C@@H](O)C[C@@H](O)[C@H](O)CC[C@@H](O)C[C@@H](O)CC(=O)O[C@H]1C)C[C@H](O)[C@H]2C(=O)O [Amphoteracin B],Bead Rescue Flip time,Candida albicans; antibiotic 1 mg/L blood,1.27 days
same,Control Flip time,Candida albicans; antibiotic 1 mg/L blood,2.22 days
same,Bead Rescue Flip time,Candida albicans; antibiotic 2 mg/L blood,1.85 days
same,Control Flip time,Candida albicans; antibiotic 2 mg/L blood,2.98 days
same,Bead Rescue Flip time,Cryptococcus neoformans,3.14 days
same,Control Flip time,Cryptococcus neoformans,3.7 days
CO/N=C(\C(=O)N[C@@H]1C(=O)N2C(C(=O)O)=C(CSc3nc(=O)c(O)nn3C)CS[C@H]12)c1csc(N)n1 [Celtriaxone],Bead Rescue Flip time,S. pneumoniae; 200 cfu/5 mL Blood,0.86 days
same,Control Flip time in Days,S. pneumoniae; 200 cfu/5 mL Blood,Neg
same,Bead Rescue Flip time,S. pneumoniae; 10000 cfu/5 mL Blood,0.71 days
same,Control Flip time in Days,S. pneumoniae; 10000 cfu/5 mL Blood,Neg
same,Bead Rescue Flip time,S. pneumoniae; 100000 cfu/5 mL Blood,0.68 days
same,Control Flip time in Days,S. pneumoniae; 100000 cfu/5 mL Blood,Neg
